# Reference: patent publication US8697747B2, “Enhancing coagulation or reducing fibrinolysis” (THe UAB Research Foundation, priority 2009, dated 2014)
# Tests used:
# FXIII deficient plasma = test: CLSM thrombelastography with tPA, FXIII deficient plasma; assay type: biochemical, human; conditions: 100 μM CORM-2, tPA 100 IU/mL, median, n=8
# Protocol: Pooled normal plasma (George King Bio-Medical, Overland Park, Kans.) anticoagulated with sodium citrate was utilized for experimentation. […] Factor XIII (FXIII) deficient plasma anticoagulated with sodium citrate was also obtained from the same vendor.
# Plasma Sample Composition. The final volume for all subsequently described plasma sample mixtures was 359.4 μL. Sample composition consisted of 316 μL of plasma; 10 μL of tissue factor (0.1% final concentration in 0.9% NaCl; Diagnostica Stago, Asnieres, France), 3.6 μL of dimethyl sulfoxide (DMSO) or DMSO with CORM-2 (Sigma-Aldrich, St. Louis, Mo.) or DMSO with inactivated CORM-2 (iCORM-2), 10 μL of tissue-type plasminogen activator (tPA, 580 U/μg, Genentech, Inc., San Francisco, Calif.) diluted with 10 mM potassium phosphate buffer (pH 7.4) for a final activity of 100 IU/mL, and 20 μL of 200 mM CaCl2. […] This concentration of CORM-2 was chosen because the concentration of CO released would be expected to be in the mid to lower ranges used in previously reported ex vivo, in vitro, and cell-based experiments (Motterlini et al. 2002; Megias et al. 2007; Chlopicki et al. 2006; Dong et al. 2008). […] (Motterlini et al. 2005). While CORM-2 decays slowly in DMSO, DMSO was added to the dry compound just prior to placement into the plasma mixture. The specific series of experiments are subsequently presented.
# Assessment of the Effects of CORM-2 on CLSM Parameters in FXIII, PAI-1, TAFI and α2-antiplasmin Deficient Plasmas. These experiments were performed to elucidate the roles played by antifibrinolytic enzymes during CORM-2 mediated modulation of fibrinolysis. Samples of the various deficient plasmas were exposed to 0 or 100 μM of CORM-2 (n=8 per condition). Samples underwent CLSM analyses as subsequently described.
# Clot Lifespan Model Analyses. As described in Example 1, plasma sample mixtures were placed in a disposable cup in a computer-controlled THROMBELASTOGRAPH® hemostasis system (Model 5000, Haemoscope Corp., Niles, Ill.), with addition of CaCl2 as the last step to initiate clotting. Data were collected until clot lysis time occurred. […] As this model involves complete fibrinolysis, TTG is equivalent to ACL, so ACL was not presented as it provides no additional information.
# Statistical Analyses. Data are presented as median (1st, 3rd quartiles). […] Nonlinear and linear analyses and curve fitting of the various CORM-2 concentrations effects on CLSM variables were performed with commercially available software (SigmaPlot 11.0, Systat Software, Inc., San Jose, Calif.). Analyses of the effects of CORM-2 and iCORM-2 on CLSM variables in normal plasma were conducted with Kruskal-Wallis one way analysis of variance on ranks, whereas Mann-Whitney rank sum tests were used to assess the effects of CORM-2 on CLSM variables in the various immunodepleted/congenitally deficient plasma types (SigmaStat 3.1, Systat Software, Inc., San Jose, Calif.). Graphical representation of the data was generated with commercially available software (SigmaPlot 11.0, Systat Software, Inc., San Jose, Calif.; CorelDRAW 12.0, Corel Corporation, Ottawa, Ontario, Canada; Origin 7.5, OriginLab Corp., Northampton, Mass.). A P value of <0.05 was considered significant.
# [1] = tested on: fibrinogen deficient plasma; test: Thrombelastography in fibrinogen deficient plasma with added fibrinogen; assay type: biochemical, human
# Protocol: Plasma types, purified proteins and compounds. Prothrombin deficient plasma (George King Bio-Medical, Overland Park, Kans.) anticoagulated with sodium citrate was utilized for experimentation concerning the effects of CORM-2 on prothrombin. Purified prothrombin (Enzyme Research Laboratories, South Bend, Ind.) that was 95% pure (10.4 mg/mL, 11.1 U/mg, suspended in 20 mM Tris-HCl in 0.1M NaCl at pH 7.4) was used for experimentation. Fibrinogen deficient plasma (Affinity Biologicals, Inc., Ancaster, Ontario, Canada) anticoagulated with sodium citrate was used in experiments investigating the effects of CORM-2 on fibrinogen. […] CORM-2 and dimethyl sulfoxide (DMSO) were obtained from Sigma-Aldrich, St. Louis, Mo.
# Fibrinogen deficient plasma experiments. In these experiments, the final plasma sample mixture volume was 358.6 μL. Sample composition consisted of 260 μL of fibrinogen deficient plasma, 65 μL of pure fibrinogen solution, and dH2O to generate discrete fibrinogen concentrations subsequently described, 3.6 μL of DMSO or CORM-2 in DMSO (final CORM-2 concentration 0 or 100 μM, n=4 per fibrinogen concentration), 10 μL of tissue factor reagent (0.1% final concentration), and 20 μL of 200 mM CaCl2. The fibrinogen concentrations studied were 100, 200, 300, 400, 500, 600, and 800 mg/dL.
# Thrombelastographic monitoring. Plasma sample mixtures were placed in a disposable cup in a computer-controlled THROMBELASTOGRAPH® hemostasis system (Model 5000, Haemoscope Corp., Niles, Ill.), with addition of CaCl2 as the last step to initiate clotting. Data were collected until clot strength stabilized. The following previously described variables (Examples 1-3) were determined at 37° C.: Time to maximum rate of thrombus generation (TMRTG): This is the time interval (sec) observed prior to maximum speed of clot growth. […]
# Statistical Analyses. […] The difference between the mean values of MRTG or TTG in samples exposed to 0 or 100 μM CORM-2 were determined and expressed as percent difference secondary to CORM-2 exposure in the fibrinogen deficient plasma experiments.
# [2] = 100 μM vs 0 μM CORM-2, fibrinogen 300 mg/dL
structure (smiles),measurement,setting,value
"[C-]#[O+].[C-]#[O+].[C-]#[O+].[C-]#[O+].[C-]#[O+].[C-]#[O+].[Cl][Ru][Cl].[Cl][Ru][Cl] [CORM-2, tricarbonyldichlororuthenium (II) dimer]",CGT (clot growth time),FXIII deficient plasma,820 s
same,CLS (clot lifespan),FXIII deficient plasma,2258 s
same,CLT (clot lysis time),FXIII deficient plasma,1460 s
same,MRL (maximum rate of lysis),FXIII deficient plasma,−1.0 -dynes/cm^2/sec
same,MRTG (maximum rate of thrombus generation),FXIII deficient plasma,5.8 dynes/cm^2/sec
same,TMRL (time to maximum rate of lysis),FXIII deficient plasma,855 s
same,TMRTG (time to maximum rate of thrombus generation),FXIII deficient plasma,195 s
same,TTG (total thrombus generation),FXIII deficient plasma,160 dynes/cm^2
same,"TMRTG, range of values","[1]; 100 μM CORM-2, fibrinogen 100-800 mg/dL",2.83 to 4.00 min
same,increase in MRTG secondary to CORM-2 exposure,[1]; [2],> 80%
same,increase in TTG secondary to CORM-2 exposure,[1]; [2],> 80%
